The source of these data is patent publication US7572765B2, “Conformationally constrained parathyroid hormone (PTH) analogs” (The General Hospital Corporation, priority 2001, dated 2009).

Series [1] deals with T1, human P1R (Homo sapiens, UniProt Q03431).
T1 construct: expressed in transfected cells; host or cells: HKRK-B28 (porcine kidney LLC-PK1, stably transfected)
T1 sequence (Q03431 27-593): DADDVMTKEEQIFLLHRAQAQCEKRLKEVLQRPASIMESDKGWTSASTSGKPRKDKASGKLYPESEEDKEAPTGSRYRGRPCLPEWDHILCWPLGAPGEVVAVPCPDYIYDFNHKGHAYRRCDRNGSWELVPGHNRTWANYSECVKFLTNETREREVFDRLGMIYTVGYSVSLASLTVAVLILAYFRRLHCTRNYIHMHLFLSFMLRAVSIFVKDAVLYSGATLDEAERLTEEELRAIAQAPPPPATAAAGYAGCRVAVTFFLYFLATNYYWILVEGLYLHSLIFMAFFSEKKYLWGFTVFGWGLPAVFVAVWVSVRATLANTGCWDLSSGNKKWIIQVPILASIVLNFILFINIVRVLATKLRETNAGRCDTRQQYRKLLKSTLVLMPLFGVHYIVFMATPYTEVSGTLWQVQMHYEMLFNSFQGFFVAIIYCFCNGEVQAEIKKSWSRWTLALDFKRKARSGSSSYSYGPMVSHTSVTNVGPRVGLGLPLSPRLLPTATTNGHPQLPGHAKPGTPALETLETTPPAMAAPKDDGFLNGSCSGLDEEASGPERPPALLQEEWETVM
To be noted: HKRK-B28 cells; previously shown (Shimizu et al., Endocrinology 2001); read-out: cAMP EC50; cited from earlier work.

The target in series [2] is T1, human P1R. Description: cAMP stimulation in HKRK-B28 cells. The class given is cell-based. To be noted: basal 4.0 ± 0.1 pmole/well not subtracted.
The target of series [3] is T2, wild-type human P1R (hP1R-WT) (Homo sapiens, UniProt Q03431).
T2 construct: expressed in transfected cells; host or cells: COS-7 (transient, FuGENE 6)
T2 sequence (Q03431 27-593): T1 sequence (Q03431 27-593)
Kind of series: cAMP stimulation in COS-7 cells expressing hP1R-WT. The class given is cell-based. The conditions noted are these: hP1R-WT, basal 10.3 ± 1.1, asterisk = plateau not attained. On the procedure:
(§1) Cell Culture. The cell line HKRK-B28 (Takasu, H., et al., J. Bone Miner. Res. 14:11-20 (1999)) was derived from the porcine kidney cell line, LLC-PK1 by stable transfection with plasmid DNA encoding the human P1R and expresses ˜280,000 receptors per cell. These cells, as well as COS-7 cells and SaOS-2-B10 cells, were cultured at […] in T-75 flasks ([…]) in Dulbecco's modified Eagle's medium (DMEM) supplemented with fetal bovine serum (10%), penicillin G (20 units/ml), streptomycin sulfate (20 μg/ml) and amphotericin B (0.05 μg/ml) in a humidified atmosphere containing 5% CO2. Stock solutions of EGTA/trypsin and antibiotics were from GIBCO; fetal bovine serum was from Hyclone Laboratories (Logan, Utah). COS-7 cells sub-cultured in 24-well plates were transfected with plasmid DNA (200 ng per well) encoding the wild-type human P1R or truncated human P1R deleted for residues (24-181) (Shimizu, M., et al., J. Biol. Chem. 275:21836-21843 (2000)) that was purified by cesium chloride/ethidium bromide density gradient centrifugation, and FuGENE 6 transfection reagent (Roche Indianapolis Ind.) according to the manufacturer's recommended procedure. All cells, in 24-well plates, were treated with fresh media and shifted to 33° C. for 12 to 24 h prior to assay.
(§2) cAMP Stimulation. Stimulation of cells with peptide analogs was performed in 24-well plates. Cells were rinsed with 0.5 mL of binding buffer (50 mM Tris-HCI, […], 5 mM KCl, 2 mM CaCl2, 5% heat-inactivated horse serum, 0.5% fetal bovine serum, adjusted to pH 7.5 with HCl) and treated with 200 μL of cAMP assay buffer (Delbecco's modified Eagle's medium containing 2 mM 3-isobutyl-1-methylxanthine, 1 mg/mL bovine serum albumin, 35 mM Hepes-NaOH, pH 7.4) and 100 μL of binding buffer containing varying amounts of peptide analog (final volume=300 μL). The medium was removed after incubation for 30 to 60 minutes at room temperature, and the cells were frozen on dry ice, lysed with 0.5 mL 50 mM HCl, and refrozen ([…]). The cAMP content of the diluted lysate was determined by radioimmunoassay. The EC50 response values were calculated using nonlinear regression (see below).
(§3) Data Calculation. Calculations were performed using Microsoft® Excel. Nonlinear regression analyses of binding and cAMP dose-response data were performed using the four-parameter equation: yp=Min+[(Max−Min)/(1+(IC50/x)^slope)]. The Excel Solver function was utilized for parameter optimization, as described previously (Carter, P. H., et al., Endocrinology 140: 4972-4981 (1999); Bowen, W. P., and Jerman, J. C., Trends in Pharmacol. Sci. 16: 413-417 (1995)). Differences between paired data sets were statistically evaluated using a one-tailed Student's t-test, assuming unequal variances for the two sets.

For series [4], the target named is T2, wild-type human P1R (hP1R-WT). Description: Competition binding in COS-7 cells expressing hP1R-WT. The conditions noted are these: P1R-WT; Scatchard transformation of homologous competition binding; read-out: apparent equilibrium dissociation constant (KDapp). On the procedure: as §1
Competition Binding. Binding reactions were performed with HKRK-B28 cells or in COS-7 cells in 24-well plates. The cells were rinsed with 0.5 mL of binding buffer, and then treated successively with 100 μL binding buffer, 100 μL of binding buffer containing various amounts of unlabeled competitor ligand, and 100 μL of binding buffer containing ca. 100,000 cpm of ^125I-[M]PTH(1-21) or ^125I-[Aib^1,3,M]PTH(1-21)} (ca. 26 fmol; final volume=300 μL). Incubations were 4 to 6 h at 4° C., at which time near equilibrium conditions were attained. Cells were then placed on ice, the binding medium was removed, and the monolayer was rinsed three times with 0.5 mL of cold binding buffer. The cells were subsequently lysed with 0.5 mL […] and counted for radioactivity. For each tracer and in each experiment, the non-specific binding was determined as the radioactivity that bound in the presence of the same unlabeled peptide at a concentration of 1 μM, and was ˜1% of total radioactivity added for each tracer. The maximum specific binding (B0) was the total radioactivity bound in the absence of competing ligand, corrected for nonspecific binding, and for each tracer, ranged from 8% to 20% of the total radioactivity added. Nonlinear regression was used to calculate binding IC50 values (see below). Scatchard transformations of homologous competition binding data derived from studies with 26 fmol of ^125I-[Aib^1,3,M]PTH(1-21) were employed for estimations of apparent equilibrium dissociation constant (kDapps) and total number of ligand binding sites (Bmax), assuming a single class of binding sites and equal affinities of the iodinated and non iodinated ligand.
Data Calculation. Calculations were performed using Microsoft® Excel. Nonlinear regression analyses of binding and cAMP dose-response data were performed using the four-parameter equation: yp=Min+[(Max−Min)/(1+(IC50/x)^slope)]. […] Differences between paired data sets were statistically evaluated using a one-tailed Student's t-test, assuming unequal variances for the two sets. […]

Series [5] deals with T3, P1R-delNt, truncated human P1R deleted for residues (24-181) (Homo sapiens, UniProt Q03431).
T3 construct: expressed in transfected cells; host or cells: COS-7 (transient, FuGENE 6)
T3 sequence (Q03431 with tags, fused parts or gaps limits assumed): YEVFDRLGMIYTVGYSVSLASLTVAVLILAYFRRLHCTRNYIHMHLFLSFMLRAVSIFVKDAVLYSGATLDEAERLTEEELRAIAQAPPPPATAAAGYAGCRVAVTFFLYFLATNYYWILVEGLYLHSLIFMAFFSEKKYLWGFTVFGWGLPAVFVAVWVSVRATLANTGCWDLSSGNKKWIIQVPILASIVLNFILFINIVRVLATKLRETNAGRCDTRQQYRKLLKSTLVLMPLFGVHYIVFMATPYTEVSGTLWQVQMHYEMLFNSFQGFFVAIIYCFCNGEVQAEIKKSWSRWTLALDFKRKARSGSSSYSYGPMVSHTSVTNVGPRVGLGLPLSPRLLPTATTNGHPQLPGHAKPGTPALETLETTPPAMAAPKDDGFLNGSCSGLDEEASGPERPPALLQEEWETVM
Kind of series: Competition binding in COS-7 cells expressing hP1R-delNt. To be noted: COS-7 cells.

Series [6] addresses T3, P1R-delNt, truncated human P1R deleted for residues (24-181). Description: cAMP stimulation in COS-7 cells expressing hP1R-delNt. The class given is cell-based. The conditions noted are these: hP1R-delNT, basal 9.5 ± 1.3, asterisk = plateau not attained. On the procedure: as §1, §2, §3
The possibility that the activity-enhancing effects of the Aib substitutions at positions 1 and 3 were mediated through the juxtamembrane (J) region of the receptor was investigated in COS-7 cells transiently transfected with P1R-delNt. P1R-delNt was a truncated P1R that lacked most of the amino-terminal extracellular domain.

A short description of series [7]: Circular dichroism spectroscopy (helical content). The class given is physicochemical. The protocol:
Circular Dichroism. Circular Dichroism spectra were recorded on a Jasco model 710 spectropolarimeter; peptides were analyzed at a concentration of20 μM in 50 mM sodium phosphate buffer pH 7.4, or the same buffer containing 2,2,2-trifluoroethanol at 20% (v/v). Spectroscopic scans were preformed at 20° C. and at wavelengths between […], with data recored at each 1 nM interval. The spectral bandwidth was 1.5 nM and 8 scans were accumulated and averaged for each sample. At each wavelength, the mean residue elipticity [θ×100/l×C×n); where θ is the raw elipticity value (in dimensions of millidegree), l is the sample path length, C=is the molar peptide concentration, and n is the number of residues in the peptide (Bowen, W. P., and Jerman, J. C., Trends in Pharmacol. Sci. 16: 413-417 (1995)). The helical content of each peptide was estimated by dividing [θ] observed at 222 nM for that peptide by −28,100, which is the reported [θ]222obs for a model helical decapeptide (Bowen, W. P., and Jerman, J. C., Trends in Pharmacol. Sci. 16: 413-417 (1995)).
Circular dichroism (CD) spectroscopy was used to analyze the potential effects that the Aib substitutions had on peptide secondary structure when the peptides were free in solution. Samples were analyzed in both aqueous phosphate buffer and in phosphate buffer containing 2,2,2-trifloroethanol, an organic solvent which promotes helical structure in oligopeptides, including PTH peptide fragments (Pellegrini, M., et al., J. Biol. Chem. 273:10420-10427 (1998); Gronwald, W., et al., Biol. Chem. Hoppe Seyler 377:175-186 (1996); Barden, J. A., and Kemp, B. E., Biochemistry 32:7126-7132 (1993)). In phosphate buffer, the helical content of each peptide, estimated from the elipticity observed at 222 nM, was small (≦16%); however, [Aib^1,3,M]PTH(1-14) contained nearly twice as much helix as did [M]PTH(1-14) (16% and 8.1% respectively), as did [Aib^1,3,M]PTH(1-1l), as compared to […] (13% and 7.5% respectively, Table 4). […] The higher helical contents of these two peptides were evident not only from the negative elipticities at […] and 222 nM, but also from the positive elipticities at 192 nM (FIG. 6).
(CD spectra are sensitive to the conformation of chiral molecules.)

Square brackets hold non-standard residues; d marks the D form. Ends that are not written are not given here. Peptide text beside a SMILES is read from it. hArg = N=C(N)NCCCC[C@H](N)C(=O)O; Nle = CCCC[C@H](N)C(=O)O; Aib = CC(C)(N)C(=O)O

Broadly, the EC50 is the concentration needed to bring the measured effect to its halfway point.

In the case of “[Ala^3,Gln^10]PTH(1-10) (SVAEIQLMHQ-NH2; UniProt P01270 32-41, looked up, variant S3A N10Q)”, in the series with human P1R [1], the half-maximal effective concentration (EC50) was approximately 800000 nM.
`CCCC[C@H](NC(=O)[C@H](CC(C)C)NC(=O)[C@H](CCC(N)=O)NC(=O)[C@@H](NC(=O)[C@H](CCC(=O)O)NC(=O)C(C)(C)NC(=O)[C@@H](NC(=O)C(C)(C)N)C(C)C)[C@@H](C)CC)C(=O)N[C@@H](Cc1c[nH]cn1)C(=O)N[C@@H](CCC(N)=O)C(=O)N[C@@H](CCCCNC(=N)N)C(=O)N[C@@H](C)C(=O)N[C@@H](CCCCN)C(=O)N[C@@H](Cc1c[nH]c2ccccc12)C(=O)N[C@@H](CC(C)C)C(=O)N[C@@H](C)C(=O)N[C@@H](CO)C(=O)N[C@H](C(=O)N[C@@H](CCCNC(=N)N)C(=O)N[C@@H](CCCNC(=N)N)C(=O)N[C@@H](Cc1ccc(O)cc1)C(N)=O)C(C)C` [[Aib^1,3,M]PTH(1-21), AibValAibGluIleGlnLeuNleHisGlnHarAlaLysTrpLeu-AlaSerValArgArtTyr] (H-[Aib]V[Aib]EIQL[Nle]HQ[hArg]AKWLASVRRY-NH2): the “cAMP EMax(obs.)” value amounted to 284 ± 76 pmole/well at human P1R [2], 300 ± 30 pmole/well in series [3] and 240 ± 20 pmole/well in series [6]. In addition, the Kd in series [4] was determined as 17 ± 2 nM. Further, in series [5], the “affinity at P1R-delNt, fold weaker than at P1R-WT” value is reported as less than 2 fold. For the same compound, the “Binding IC50” value in series [5] (hP1R-delNT, tracer 125I-[Aib^1,3,M]PTH(1-21), N.B. = no inhibition of tracer binding) is “effectively inhibited the binding”.
On to “[Ala^3,Gln^10,Har^11]PTH(1-11)amide [[M]PTH(1-11)]”, for which the “[0]222obs × 10^−3, Phos.” value in series [7] (20 μM peptide, 50 mM phosphate buffer pH 7.4) was −2.1. Also, the “[0]222obs × 10^−3, Phos + TFE” value in series [7] (20 μM peptide, 50 mM phosphate buffer with trifluoroethanol (20%)) is −9.9. Also, in series [7] (50 mM phosphate buffer with trifluoroethanol (20%), from elipticity at 222 nM), the “helical residues (%), Phos + TFE” value was determined as 35%. Further, the “helical residues (%), Phos.” value in series [7] (50 mM phosphate buffer, from elipticity at 222 nM) was found to be 7.5%. For the same compound, on human P1R [1], the EC50 was 3000 nM.
